Test results as given in the supplement of paper PMC10307832.

How the values were obtained:
Assay in all cases: relative viability (nuclei count vs DMSO), 5 days (fraction); higher = more cells survive
[1] = compound: C1=CC=C(C(=C1)C2=CC=C(C=C2)C3=CSC4=C3C(=C(C(=O)N4)C#N)O)O + Nc1ncn([C@H]2C[C@H](O)[C@@H](CO)O2)c(=O)n1 [Decitabine] (partner 2 µM)
Outline: (§1)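 One day after seeding in 1536-well plates, lung cancer cell lines were dosed by pin tool. Dosing was either single-drug or a fixed anchor-drug dose plus five library-drug doses (not always all listed) in √10 steps. After 5 days, nuclei were stained in one fix-and-stain step and counted on 4× images, and relative viability is the nuclei count of treated wells over that of vehicle wells, given as the median of duplicate plates.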

[2] = compound: CC1=CN2C(=O)C=C(N=C2C(=C1)C(C)NC3=CC=CC=C3)N4CCOCC4 [TGX 221] + CS(=O)(=O)N1CCN(Cc2cc3nc(-c4cccc5[nH]ncc45)nc(N4CCOCC4)c3s2)CC1 [Pictilisib] (partner 1 µM)
Outline: as §1

[3] = compound: C1=CC=C(C(=C1)C2=CC=C(C=C2)C3=CSC4=C3C(=C(C(=O)N4)C#N)O)O + CS(=O)(=O)N1CCN(Cc2cc3nc(-c4cccc5[nH]ncc45)nc(N4CCOCC4)c3s2)CC1 [Pictilisib] (partner 1 µM)
Outline: as §1

[4] = compound: O=C(CCCCCCNC(=O)c1cnc(N(c2ccccc2)c2ccccc2)nc1)NO [Ricolinostat] + CS(=O)(=O)N1CCN(Cc2cc3nc(-c4cccc5[nH]ncc45)nc(N4CCOCC4)c3s2)CC1 [Pictilisib] (partner 1 µM)
Outline: as §1

Work on NCI-H1437 yielded a relative viability ([1]; first compound 0.08 µM) of 0.515, a relative viability ([1]; first compound 0.253 µM) of 0.674 and a relative viability ([1]; first compound 0.8 µM) of 0.57. It also gave a relative viability ([1]; first compound 2.53 µM) of 0.596, a relative viability ([1]; first compound 8 µM) of 0.466 and a relative viability ([2]; first compound 0.08 µM) of 0.439. For the same cell line, the relative viability ([2]; first compound 0.253 µM) was 0.359, the relative viability ([2]; first compound 0.8 µM) was 0.473 and the relative viability ([2]; first compound 2.53 µM) was 0.462. It also gave a relative viability ([2]; first compound 8 µM) of 0.399, a relative viability ([3]; first compound 0.08 µM) of 0.42 and a relative viability ([3]; first compound 0.253 µM) of 0.475. It also gave a relative viability ([3]; first compound 0.8 µM) of 0.39, a relative viability ([3]; first compound 2.53 µM) of 0.459 and a relative viability ([3]; first compound 8 µM) of 0.494. It also gave a relative viability ([4]; first compound 0.08 µM) of 0.38, a relative viability ([4]; first compound 0.253 µM) of 0.414 and a relative viability ([4]; first compound 0.8 µM) of 0.36. It also gave a relative viability ([4]; first compound 2.53 µM) of 0.223.
With NCI-H1650 the relative viability ([1]; first compound 0.08 µM) was 0.456, the relative viability ([1]; first compound 0.253 µM) was 0.535 and the relative viability ([1]; first compound 0.8 µM) was 0.496. The relative viability ([1]; first compound 2.53 µM) was 0.384, the relative viability ([1]; first compound 8 µM) was 0.367 and the relative viability ([2]; first compound 0.08 µM) was 0.524. For the same cell line, the relative viability ([2]; first compound 0.253 µM) was 0.524, the relative viability ([2]; first compound 0.8 µM) was 0.645 and the relative viability ([2]; first compound 2.53 µM) was 0.621. It also gave a relative viability ([2]; first compound 8 µM) of 0.508, a relative viability ([3]; first compound 0.253 µM) of 0.855 and a relative viability ([3]; first compound 0.8 µM) of 0.681. It also gave a relative viability ([3]; first compound 2.53 µM) of 0.53, a relative viability ([3]; first compound 8 µM) of 0.501 and a relative viability ([4]; first compound 0.08 µM) of 0.423. The relative viability ([4]; first compound 0.253 µM) was 0.523, the relative viability ([4]; first compound 0.8 µM) was 0.395 and the relative viability ([4]; first compound 2.53 µM) was 0.347.
NCI-H1651 gave a relative viability ([1]; first compound 0.08 µM) of 0.538, a relative viability ([1]; first compound 0.253 µM) of 0.639 and a relative viability ([1]; first compound 0.8 µM) of 0.548. For the same cell line, the relative viability ([1]; first compound 2.53 µM) was 0.593, the relative viability ([1]; first compound 8 µM) was 0.464 and the relative viability ([2]; first compound 0.08 µM) was 0.501. It also gave a relative viability ([2]; first compound 0.253 µM) of 0.481, a relative viability ([2]; first compound 0.8 µM) of 0.584 and a relative viability ([2]; first compound 2.53 µM) of 0.578. The relative viability ([2]; first compound 8 µM) was 0.465, the relative viability ([3]; first compound 0.08 µM) was 0.361 and the relative viability ([3]; first compound 0.253 µM) was 0.61. The relative viability ([3]; first compound 0.8 µM) was 0.636, the relative viability ([3]; first compound 2.53 µM) was 0.565 and the relative viability ([3]; first compound 8 µM) was 0.568. It also gave a relative viability ([4]; first compound 0.08 µM) of 0.612, a relative viability ([4]; first compound 0.253 µM) of 0.55 and a relative viability ([4]; first compound 0.8 µM) of 0.571. It also gave a relative viability ([4]; first compound 2.53 µM) of 0.44.
With NCI-H1666 the relative viability ([1]; first compound 0.08 µM) was 0.662, the relative viability ([1]; first compound 0.253 µM) was 0.851 and the relative viability ([1]; first compound 0.8 µM) was 0.742. The relative viability ([1]; first compound 2.53 µM) was 0.664, the relative viability ([1]; first compound 8 µM) was 0.601 and the relative viability ([2]; first compound 0.08 µM) was 0.321. The relative viability ([2]; first compound 0.253 µM) was 0.375, the relative viability ([2]; first compound 0.8 µM) was 0.41 and the relative viability ([2]; first compound 2.53 µM) was 0.32. It also gave a relative viability ([2]; first compound 8 µM) of 0.418, a relative viability ([3]; first compound 0.08 µM) of 0.321 and a relative viability ([3]; first compound 0.253 µM) of 0.572. For the same cell line, the relative viability ([3]; first compound 0.8 µM) was 0.404, the relative viability ([3]; first compound 2.53 µM) was 0.29 and the relative viability ([3]; first compound 8 µM) was 0.405. It also gave a relative viability ([4]; first compound 0.08 µM) of 0.445, a relative viability ([4]; first compound 0.253 µM) of 0.52 and a relative viability ([4]; first compound 0.8 µM) of 0.378. The relative viability ([4]; first compound 2.53 µM) was 0.305.
For NCI-H1734, the relative viability ([1]; first compound 0.08 µM) was 0.469, the relative viability ([1]; first compound 0.253 µM) was 0.493 and the relative viability ([1]; first compound 0.8 µM) was 0.501. For the same cell line, the relative viability ([1]; first compound 2.53 µM) was 0.545, the relative viability ([1]; first compound 8 µM) was 0.432 and the relative viability ([2]; first compound 0.08 µM) was 0.452. The relative viability ([2]; first compound 0.253 µM) was 0.41, the relative viability ([2]; first compound 0.8 µM) was 0.435 and the relative viability ([2]; first compound 2.53 µM) was 0.377. It also gave a relative viability ([2]; first compound 8 µM) of 0.456, a relative viability ([3]; first compound 0.08 µM) of 0.46 and a relative viability ([3]; first compound 0.253 µM) of 0.485. For the same cell line, the relative viability ([3]; first compound 0.8 µM) was 0.444, the relative viability ([3]; first compound 2.53 µM) was 0.477 and the relative viability ([3]; first compound 8 µM) was 0.493. For the same cell line, the relative viability ([4]; first compound 0.08 µM) was 0.371, the relative viability ([4]; first compound 0.253 µM) was 0.467 and the relative viability ([4]; first compound 0.8 µM) was 0.495. For the same cell line, the relative viability ([4]; first compound 2.53 µM) was 0.402.
NCI-H1755 showed a relative viability ([1]; first compound 0.08 µM) of 0.736, a relative viability ([1]; first compound 0.253 µM) of 0.723 and a relative viability ([1]; first compound 0.8 µM) of 0.722. The relative viability ([1]; first compound 2.53 µM) was 0.749, the relative viability ([1]; first compound 8 µM) was 0.731 and the relative viability ([2]; first compound 0.08 µM) was 0.412. The relative viability ([2]; first compound 0.253 µM) was 0.381, the relative viability ([2]; first compound 0.8 µM) was 0.406 and the relative viability ([2]; first compound 2.53 µM) was 0.372. It also gave a relative viability ([2]; first compound 8 µM) of 0.425, a relative viability ([3]; first compound 0.08 µM) of 0.279 and a relative viability ([3]; first compound 0.253 µM) of 0.59. The relative viability ([3]; first compound 0.8 µM) was 0.381, the relative viability ([3]; first compound 2.53 µM) was 0.396 and the relative viability ([3]; first compound 8 µM) was 0.383. The relative viability ([4]; first compound 0.08 µM) was 0.278, the relative viability ([4]; first compound 0.8 µM) was 0.402 and the relative viability ([4]; first compound 2.53 µM) was 0.312.
For NCI-H1793, the relative viability ([1]; first compound 0.08 µM) was 0.483, the relative viability ([1]; first compound 0.253 µM) was 0.5 and the relative viability ([1]; first compound 0.8 µM) was 0.483. The relative viability ([1]; first compound 2.53 µM) was 0.499, the relative viability ([1]; first compound 8 µM) was 0.49 and the relative viability ([2]; first compound 0.08 µM) was 0.274. The relative viability ([2]; first compound 0.253 µM) was 0.303, the relative viability ([2]; first compound 0.8 µM) was 0.317 and the relative viability ([2]; first compound 2.53 µM) was 0.413. It also gave a relative viability ([2]; first compound 8 µM) of 0.291, a relative viability ([3]; first compound 0.08 µM) of 0.379 and a relative viability ([3]; first compound 0.253 µM) of 0.352. The relative viability ([3]; first compound 0.8 µM) was 0.269, the relative viability ([3]; first compound 2.53 µM) was 0.312 and the relative viability ([3]; first compound 8 µM) was 0.242. For the same cell line, the relative viability ([4]; first compound 0.253 µM) was 0.31, the relative viability ([4]; first compound 0.8 µM) was 0.311 and the relative viability ([4]; first compound 2.53 µM) was 0.298.
Cell Line NCI-H1915 has a relative viability ([1]; first compound 0.08 µM) of 0.263, a relative viability ([1]; first compound 0.253 µM) of 0.269 and a relative viability ([1]; first compound 0.8 µM) of 0.251. For the same cell line, the relative viability ([1]; first compound 2.53 µM) was 0.252, the relative viability ([1]; first compound 8 µM) was 0.262 and the relative viability ([2]; first compound 0.08 µM) was 0.892. The relative viability ([2]; first compound 0.253 µM) was 0.895, the relative viability ([2]; first compound 0.8 µM) was 1 and the relative viability ([2]; first compound 2.53 µM) was 0.805. For the same cell line, the relative viability ([2]; first compound 8 µM) was 0.949, the relative viability ([3]; first compound 0.08 µM) was 0.926 and the relative viability ([3]; first compound 0.253 µM) was 1.05. For the same cell line, the relative viability ([3]; first compound 0.8 µM) was 0.784, the relative viability ([3]; first compound 2.53 µM) was 0.927 and the relative viability ([3]; first compound 8 µM) was 0.884. It also gave a relative viability ([4]; first compound 0.08 µM) of 0.852, a relative viability ([4]; first compound 0.253 µM) of 0.928 and a relative viability ([4]; first compound 0.8 µM) of 0.869. The relative viability ([4]; first compound 2.53 µM) was 0.729.
For NCI-H1944, the relative viability ([1]; first compound 0.08 µM) was 0.454, the relative viability ([1]; first compound 0.253 µM) was 0.44 and the relative viability ([1]; first compound 0.8 µM) was 0.39. For the same cell line, the relative viability ([1]; first compound 2.53 µM) was 0.468, the relative viability ([1]; first compound 8 µM) was 0.465 and the relative viability ([2]; first compound 0.08 µM) was 0.335. The relative viability ([2]; first compound 0.253 µM) was 0.339, the relative viability ([2]; first compound 0.8 µM) was 0.361 and the relative viability ([2]; first compound 2.53 µM) was 0.342. The relative viability ([2]; first compound 8 µM) was 0.335, the relative viability ([3]; first compound 0.08 µM) was 0.349 and the relative viability ([3]; first compound 0.253 µM) was 0.39. It also gave a relative viability ([3]; first compound 0.8 µM) of 0.317, a relative viability ([3]; first compound 2.53 µM) of 0.343 and a relative viability ([3]; first compound 8 µM) of 0.357. It also gave a relative viability ([4]; first compound 0.08 µM) of 0.285, a relative viability ([4]; first compound 0.253 µM) of 0.347 and a relative viability ([4]; first compound 0.8 µM) of 0.321. It also gave a relative viability ([4]; first compound 2.53 µM) of 0.289.
